Measured values as given in patent US5068253A, “Treatment of a microbial infection with drugs containing para-acetamidobenzoic acid” (priority 1990, dated 1991).
Where “and” joins values, the source holds several entries; their conditions need not be identical. Identical values can stand only once. Counter-ions that a name gives are not always drawn.

What was measured:
[1] = system: P. carinii; assay: Drug inhibition assay: [3H]PABA incorporation into reduced folates by P. carinii organisms; format: cell-based, Pneumocystis carinii; conditions: for activity at 10000 µM: drug 1 × 10^-2 M, 0 = total inhibition
Protocol: The following assay, used previously to assess drug activity against P. carinii or T. gondii [Kovacs et al., J. Infectious Diseases 160:312-320 (1989)], was used to test drugs for their ability to adversely affect the metabolism of pneumocystis and toxoplasma.
An animal model of Pneumocystis carinii pneumonia was used to obtain organisms. This model involves treating rats, usually Sprague-Dawley rats, with a corticosteroid, in the present case dexamethasone (1-2 mg/L of drinking water) for 6-10 weeks. Tetracycline is included in the water (1 mg/mL) to prevent bacterial superinfection. Such immunosuppressed rats will develop P. carinii pneumonia spontaneously, and P. carinii organisms are obtained by removing the lungs in a sterile manner, cutting up the lungs and disrupting them with a Stomacher (Tekmar), which makes a suspension of organisms and cells. The P. carinii organisms are then partially purified by Ficoll-Hypaque density gradient centrifugation, washed in phosphate buffered saline (PBS), and used in the following experiment.
For drug inhibition studies, organisms are incubated with drugs at varying concentrations for 2-h in paraaminobenzoic acid-free (PABA-free) and folate-free RPMI before pulsing with [^3 H]PABA.
Organisms are harvested after an 18-24 h pulse and washed twice in phosphate buffered saline (PBS). Folates are extracted as previously described [Allegra et al., J. Biol. Chem. 261:6478-6485 (1986)]. The organism pellet is heated at 100° C. for 1 min in 2% sodium ascorbate, pH 6.0, and 2% 2-mercaptoethanol; after centrifugation, the supernatant is treated with partially purified porcine kidney conjugase for 30 min at 37° C. to convert all folates to monoglutamates. After an additional boiling with sodium ascorbate and 2-mercaptoethanol, the folates are extracted into methanol using a C-18 cartridge (Sep-Pak, Waters Chromatography Division, Milford, Mass.) and concentrated under a stream of nitrogen.
The individual folates are resolved by high-performance liquid chromatography (HPLC) using a C8 μBondapak column (Waters Chromatography) under isocratic conditions; the running buffer is 15% ethanol and 85% Pic A (Waters Chromatography), pH 5.5 Radioactivity is determined by an in-line scintillation counter (Flow 1 Beta, model CR, Radiomatic Instruments, Tampa, Fla.). Unlabeled folates are included in each run as internal controls.
Results are presented as the percentage of total radiolabel incorporated into reduced folates compared with untreated controls.

[2] = target: T1, Dihydropteroate synthase (DHPS) (Toxoplasma gondii, UniProt A0A7J6K300); assay: Catalytic DHPS assay, crude enzyme preparation from T. gondii; format: biochemical
T1 construct: crude supernatant of sonicated T. gondii RH organisms from mouse peritoneum; bifunctional HPPK-DHPS polypeptide
T1 sequence (A0A7J6K300 1-748): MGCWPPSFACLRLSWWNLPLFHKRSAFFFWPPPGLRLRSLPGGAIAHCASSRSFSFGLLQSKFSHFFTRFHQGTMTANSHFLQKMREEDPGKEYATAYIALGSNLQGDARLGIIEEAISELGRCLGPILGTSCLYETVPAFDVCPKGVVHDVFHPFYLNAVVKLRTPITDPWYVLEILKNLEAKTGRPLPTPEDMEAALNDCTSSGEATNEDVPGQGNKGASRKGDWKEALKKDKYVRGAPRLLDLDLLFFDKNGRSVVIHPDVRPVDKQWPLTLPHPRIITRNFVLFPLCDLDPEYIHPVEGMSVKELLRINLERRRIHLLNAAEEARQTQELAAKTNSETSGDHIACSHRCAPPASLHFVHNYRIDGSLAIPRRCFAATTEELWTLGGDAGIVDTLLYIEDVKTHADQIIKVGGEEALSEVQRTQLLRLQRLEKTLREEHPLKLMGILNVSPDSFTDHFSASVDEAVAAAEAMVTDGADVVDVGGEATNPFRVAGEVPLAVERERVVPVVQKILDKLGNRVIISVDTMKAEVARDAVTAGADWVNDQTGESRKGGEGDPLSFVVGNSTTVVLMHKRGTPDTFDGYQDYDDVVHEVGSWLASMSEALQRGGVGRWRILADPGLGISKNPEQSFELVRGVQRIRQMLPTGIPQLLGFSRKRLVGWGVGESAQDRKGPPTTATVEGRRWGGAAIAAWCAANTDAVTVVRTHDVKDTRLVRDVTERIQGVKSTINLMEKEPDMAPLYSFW
Text: The RH strain of Toxoplasma gondii were used in all experiments. Organisms are passed by intraperitoneal inoculation into Balb/c mice every 3 to 4 days. Organisms were harvested by lavaging the peritoneum of infected animals 3 to 4 days after inoculation. Organisms were resuspended in PBS, cells are removed by differential centrifugation, and organisms were then pelleted and utilized in the studies.
(§1) Dihydropteroate synthase (DHPS) is an enzyme of the de novo folate synthesis pathway which is known to be susceptible to sulfonamides. […] has a structural similarity to PABA (paraamino benzoic acid), one of the substrates of DHPS. To determine whether DHPS is the target for PAcBA, a catalytic DHPS assay as previously described [Allegra et al., J. Clin. Invest. 85:371-379 (1990)] was used.
(§2) Briefly, assay tubes contain 5 mM MgCl2, 5 mM DTT, 10 μM H2 PtCH2 OPP, 1 μM [^3 H]pABA (final sp act, 2 Ci/mmol), and 40 mM Tris/HCl, pH 8.3, in a total reaction volume of 100 μl. Various concentrations of inhibitors are added as needed. Enzyme preparations were made by resuspending P. carinii or T. gondii organisms in 1 ml PBS, sonicating to disrupt the organisms, and pelleting the cellular debris. The supernatant was saved and used as the crude enzyme preparation. Reactions are initiated by the addition of 50 μl of enzyme preparation. After a 30-min incubation at 37° C. the reaction tubes are placed on ice to terminate the reactions, and then spotted onto 3×30-cm strips of 3 MM chromatography paper (Whatman Laboratory Products Inc.). The strips are developed in a descending chromatography tank using an elution buffer of 0.1M KH2 PO4, pH 7.0. The origins containing the labeled products of the reaction are cut from the strips, placed in scintillation vials, and counted in a liquid scintillation counter (Packard Tri-Carb; Packard Instrument Co. Inc., Downers Grove, Ill.) 24 h after the addition of 9.5 ml of counting cocktail (3A70b; Research Products International Corp., Mt. Prospect, Ill.).
(§3) The results of the DHPS inhibition assay carried out on P. carinii (PC) and T. gondii (Toxo) using the indicated composition are shown below in Table II.

[3] = target: T2, Dihydropteroate synthase (DHPS) (Pneumocystis carinii, UniProt P29251); assay: Catalytic DHPS assay, crude enzyme preparation from P. carinii; format: biochemical; conditions: for Percent DHPS Inhibition / inhibition at 1000 µM / inhibition at 100 µM / inhibition at 10 µM: P. carinii, single runs; for inhibition at 1000 µM / inhibition at 100 µM / inhibition at 10 µM: read-out: Percent DHPS Inhibition
T2 construct: Enzyme preparations were made by resuspending P. carinii or T. gondii organisms in 1 ml PBS, sonicating to disrupt the organisms; endogenous in cells; host or cells: P. carinii organisms partially purified from lungs of dexamethasone-treated rats; supernatant of sonicate used as crude enzyme
T2 sequence (P29251 1-740): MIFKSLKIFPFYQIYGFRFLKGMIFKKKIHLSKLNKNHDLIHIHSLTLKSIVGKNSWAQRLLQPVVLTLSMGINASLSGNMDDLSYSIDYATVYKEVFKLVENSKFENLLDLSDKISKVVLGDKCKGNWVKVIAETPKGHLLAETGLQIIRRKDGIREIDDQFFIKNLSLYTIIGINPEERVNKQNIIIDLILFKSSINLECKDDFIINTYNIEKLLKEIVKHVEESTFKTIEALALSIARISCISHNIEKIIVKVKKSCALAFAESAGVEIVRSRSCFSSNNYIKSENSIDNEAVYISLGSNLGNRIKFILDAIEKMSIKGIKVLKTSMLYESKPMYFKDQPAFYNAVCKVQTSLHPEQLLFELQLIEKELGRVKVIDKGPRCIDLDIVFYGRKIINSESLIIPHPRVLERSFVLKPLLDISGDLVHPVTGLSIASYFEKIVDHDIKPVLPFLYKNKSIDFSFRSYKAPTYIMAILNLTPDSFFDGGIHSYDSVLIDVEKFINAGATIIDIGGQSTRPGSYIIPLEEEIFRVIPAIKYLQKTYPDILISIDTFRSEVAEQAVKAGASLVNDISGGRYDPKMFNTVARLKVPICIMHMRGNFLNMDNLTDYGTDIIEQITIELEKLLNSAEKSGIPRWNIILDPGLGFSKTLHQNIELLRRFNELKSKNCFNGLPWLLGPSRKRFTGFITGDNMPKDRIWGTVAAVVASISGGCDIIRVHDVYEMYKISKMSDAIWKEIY
Protocol: as §1, §2, §3

[4] = T. gondii, 1 × 10^-4 M, single runs, read-out: Percent DHPS Inhibition
[5] = T. gondii, 1 × 10^-5 M, single runs, read-out: Percent DHPS Inhibition
[6] = concentration of each value not resolvable: run has fewer values than the concentrations listed for the drug (1 × 10-2 to 1 × 10^-6 M; PAcBA also 3 × 10^-3 M), values of a run in order of falling concentration
[7] = drug 1 × 10^-4 M, single test runs, 100 = no inhibition, 100 µM
[8] = drug 1 × 10^-5 M, single test runs, 100 = no inhibition, 10 µM
[9] = Pneumocystis carinii, single test runs, 100 = no inhibition, read-out: Results: % of Control (total radiolabel incorporated into reduced folates)
[10] = Pneumocystis carinii, drug 1 × 10^-4 M, single test runs, 100 = no inhibition, read-out: Results: % of Control (total radiolabel incorporated into reduced folates)

## CC(=O)Nc1ccc(C(=O)O)cc1 [PAcBA, p-acetamidobenzoic acid]
[1]; 1×10^-2 M, 3×10^-3 M, 1×10^-3 M
  Inhibition of P. carinii (in words): considerable inhibition
[1]; 1×10^-4 M
  Inhibition of P. carinii (in words): some inhibition
[2]
  Inhibition of DHPS activity in Toxoplasma gondii (in words): inhibited
[2]; T. gondii, 1 × 10^-3 M, single runs, read-out: Percent DHPS Inhibition
  inhibition at 1000 µM: 5.1%
[2]; [4]
  inhibition at 100 µM: 21.4%
[2]; [5]
  inhibition at 10 µM: 68.4%
[2]; T. gondii, 1 × 10^-6 M, single runs, read-out: Percent DHPS Inhibition
  inhibition at 1 µM: 83.4%
[3]
  Inhibition of DHPS in P. carinii (in words): inhibition
[3]; 1 × 10^-3 M
  Percent DHPS Inhibition: 16.6% and 22.2%
  inhibition at 1000 µM: 14.3%
[3]; 1 × 10^-4 M
  Percent DHPS Inhibition: 37.9% and 52.6% and 62.1%
[3]; 1 × 10^-5 M
  Percent DHPS Inhibition: 70.2% and 100% and 92.2%

## Isoprinosine [reference compound]
[1]; [6]
  Results: % of Control (total radiolabel incorporated into reduced folates): 100 % of Control
[1]; no concentration stated
  Inhibition of P. carinii (in words): has inhibition
[2]; T. gondii, 1 × 10^-3 M, single runs
  Percent DHPS Inhibition: 7.8%
[2]; T. gondii, 1 × 10^-4 M, single runs
  Percent DHPS Inhibition: 28.3%
[2]; T. gondii, 1 × 10^-5 M, single runs
  Percent DHPS Inhibition: 76.5%
[2]; T. gondii, 1 × 10^-6 M, single runs
  Percent DHPS Inhibition: 100%
[3]; 1 × 10^-3 M
  Percent DHPS Inhibition: 35.6%
[3]; 1 × 10^-4 M
  Percent DHPS Inhibition: 87.4%
[3]; 1 × 10^-5 M
  Percent DHPS Inhibition: 100%

## CC(O)CN(C)C (stereo not drawn) [1-dimethylamino-2-propanol, reference compound]
[1]; [7]
  Results: % of Control (total radiolabel incorporated into reduced folates): 100 % of Control and 71.3 % of Control
[1]; [8]
  Results: % of Control (total radiolabel incorporated into reduced folates): 95 % of Control and 65.4 % of Control
[2]; [4]
  inhibition at 100 µM: 93.6%
[2]; [5]
  inhibition at 10 µM: 100%
[3]; 1 × 10^-3 M
  inhibition at 1000 µM: 81.7%
[3]; 1 × 10^-4 M
  inhibition at 100 µM: 91.6%
[3]; 1 × 10^-5 M
  inhibition at 10 µM: 100%

## OC[C@H]1O[C@@H](n2cnc3c(O)ncnc32)[C@H](O)[C@@H]1O [Inosine, inosine, reference compound]
[1]; [9]
  activity at 10000 µM: 57.5%
[1]; Pneumocystis carinii, drug 1 × 10^-3 M, single test runs, 100 = no inhibition, read-out: Results: % of Control (total radiolabel incorporated into reduced folates)
  activity at 1000 µM: 100%
[1]; [10]
  activity at 100 µM: 69.8%
[1]; [6]
  Results: % of Control (total radiolabel incorporated into reduced folates): 61.9 % of Control and 57.6 % of Control and 100 % of Control
[3]; 1 × 10^-3 M
  inhibition at 1000 µM: 100%
[3]; 1 × 10^-4 M
  inhibition at 100 µM: 100%
[3]; 1 × 10^-5 M
  inhibition at 10 µM: 100%

## CC(=O)Nc1ccc(C(=O)O)cc1 [PAcBA as 1-dimethylamino-2-propanol salt, PAcBA salt of 1-dimethylamino-2-propanol]
[1]; [9]
  activity at 10000 µM: 0%
[1]; [10]
  activity at 100 µM: 19%
[1]; drug 1 × 10^-3 M, single test runs, 100 = no inhibition, 1000 µM
  Results: % of Control (total radiolabel incorporated into reduced folates): 0 % of Control
[1]; [7]
  Results: % of Control (total radiolabel incorporated into reduced folates): 15 % of Control and 20 % of Control
[1]; [8]
  Results: % of Control (total radiolabel incorporated into reduced folates): 82 % of Control and 44 % of Control and 43 % of Control
[1]; drug 1 × 10^-6 M, single test runs, 100 = no inhibition, 1 µM
  Results: % of Control (total radiolabel incorporated into reduced folates): 100 % of Control and 67 % of Control and 74 % of Control
[1]; salt versus free acid
  Potency of the salt relative to the free acid PAcBA against P. carinii: approximately 10 fold
